Drawing on a melting point compilation (Tetko et al.; mined from patent text by program, amines drawn as free bases though some values may be those of a salt), this text covers melting point for 90 molecules.

SMILES strings stand for the structures. Residues, ends and D or L forms follow the SMILES beside them. *: point of attachment. Cbz = O=C(OCc1ccccc1)*

`Cc1c(CCc2ccccc2)c(=O)oc2cc(OCC#N)cc(OCC#N)c12` returned a melting point of 179 to 183 °C. The same measure for `CCCOc1ccccc1-c1nc2ccccc2c(=O)[nH]1`: 88 to 89 °C. For `CCN1c2ccccc2NC(=O)c2cscc21` the value was 201 to 202 °C; for `COc1ccc(-c2cc3cc(F)c(F)cc3[nH]2)cc1N`, 210 to 211 °C. `COc1ccc(S(=O)(=O)n2ccc3ccnc(-c4cccs4)c32)cc1` had a melting point of 112 to 114 °C. `O=C(NO)[C@H](CNS(=O)(=O)c1ccc(OCc2ccccc2)cc1)N1CCOCC1` displayed a melting point of 142 °C. Molecule `COc1cc(N)c(CCN2CCN(c3nsc4ccccc34)CC2)cc1OC` yielded a melting point of 55 °C. Regarding `COc1cc(NC(=O)c2ccc(-c3ccncc3)cc2)cc(N2CCN(C)CC2)c1OC`, the melting point lay within 219 to 221 °C. For `O=C1c2ccccc2-c2nc3ccc(O)cc3c(Cl)c21` the value was 253 °C; for `COc1cc(C(=O)O)ccc1Cc1cn(C)c2ccc(CCNC(=O)N3CCOCC3)cc12`, 221 to 226 °C; for `COc1ccc(-c2nc3ccccc3o2)cc1`, 99.5 to 102 °C.

On to `CS(=O)(=O)c1ccc(-c2nc3cc(C4=CCN(S(=O)(=O)CCCO)CC4)ccc3o2)c(F)c1`, for which the melting point was 184 to 186 °C. The same measure for `CCCCc1nn(Cc2ccccc2C(=O)O)c(=O)n1Cc1ccc(-c2ccccc2-c2nnn[nH]2)cc1`: above 106 °C. The same measure for `COC(=O)C1CCN2C(=O)C(=O)c3cccc1c32` (stereo not given): 135 to 136 °C. `CC(C)[C@H](NC(=O)OCc1ccccc1)C(=O)N(CC(=O)O)C1CCCCCC1` showed a melting point of 48 to 51 °C. The same measure for `COc1ccnc(CCc2nc3cncnc3[nH]2)c1`: 150 to 152 °C; for `CC(C)c1ccc(-c2nc(-c3cccc(C(=O)O)c3)ns2)cc1`: 165 to 167 °C; for `CON=C(C(=O)O)c1cnsn1`: 99 to 100 °C.

In turn, `Nc1cccc(C(=O)c2ccc(-c3ccc(C(=O)c4cccc(N)c4)cc3)cc2)c1` had a melting point of 217 to 218 °C. For `CN(CCF)c1nc2cc(NC(=O)c3c(C(=O)N4CCC4)cnn3C)ccn2n1` the value was 236 to 237 °C; for `Clc1ncnc(Cl)c1C1OCCO1`, 108 to 110 °C; for `N#CCc1ccc(C2=CCCCC2)cc1`, 71 to 73 °C. For `COC(=O)C1=C(C)NC(C)=C(C(=O)OCCCl)C1c1cccc([N+](=O)[O-])c1` (stereo not given), the melting point lay in the range of 129 to 131 °C. Molecule `O=S(=O)(Nc1ccc2c(OCC3(c4cccc(C(F)(F)F)c4)N=CNO3)cccc2c1)C(F)(F)F` (stereo not given) gave a melting point of 107 to 108 °C. In turn, `COc1ccc2oc(-c3csc(C)n3)cc2c1` yielded a melting point of 136 to 137 °C. Take `Cn1cc(-c2ccc(O)cc2)c(=O)c(-c2cccc(C(F)(F)F)c2)c1`: the melting point lay within 162 to 163 °C. The same measure for `Fc1ccc(Nc2nc(OCC3CCCCC3)c3[nH]cnc3n2)cc1Cl`: 225 to 226 °C; for `NC1=CC([N+](=O)[O-])C(N)(CC(F)(F)F)C=C1` (stereo not given): 104 to 106 °C. For `CC(C)c1ccc(C(=O)NC(C)c2sccc2Br)cc1` (stereo not given) the value was 133 °C. The same measure for `Nc1ccccc1C(=O)Nc1nnn[nH]1`: 253 to 254 °C; for `CC(C)N(C)S(=O)(=O)NC(=O)c1cc(N)c(F)cc1Cl`: 160 to 162 °C; for `CC(=O)Oc1ccc(CN/C=C2\C(=O)NC(=O)c3ccccc32)cc1OC(C)=O`: 184 to 186 °C.

`O=C(O)C1CC(=S)N(c2cc(C(F)(F)F)cc(C(F)(F)F)c2)C1` (stereo not given) came in with a melting point of 141 to 142 °C. `Cc1ccc(C(=O)Nc2ccc(C)c(-c3nc(N(C)C)nc4c3CNC(=O)N4c3c(F)cccc3F)c2)cc1F` yielded a melting point of 258 to 264 °C. The same measure for `COC(=O)CC(c1ccc(OC)cc1)N1C(=O)c2ccccc2C1=O` (stereo not given): 65 to 66 °C; for `CCOC(=O)c1nn(C)cc1-c1ccccc1`: 145 °C; for `Clc1nc(-c2cccnc2)sc1Br`: 114 to 115 °C. For `O=C(O)CCCCCCCn1cnc(-c2ccc(O)cc2)c1-c1ccc(O)cc1` the value was 203 to 204 °C; for `CCOC(=O)N1CCC2=C(C1)SCC2(NC(=O)CN)C(=O)c1ccccc1Cl` (stereo not given), 95 to 97 °C; for `Cc1cccc(C(=O)c2nc(-c3ccccn3)no2)c1`, 127 to 128 °C.

Turning to `Cn1cc(Br)cc1C=O`, the melting point lay within 123 to 124 °C. The same measure for `COC(=O)C1=C(C)Nc2nc(N)nc(N)c2C1c1ccccc1F` (stereo not given): 208 °C; for `O=C1COc2ccc(NCC(=O)N3CCC(Cc4ccc(F)cc4)CC3)cc2N1`: 220 to 223 °C. For `Cc1ccnc2c(Oc3ccc([N+](=O)[O-])cc3)cccc12` the value was 148 to 149 °C.

The molecule `CC(C)(C)OC(=O)NCCc1cccc(-c2nc(=O)c3ccccc3s2)n1` registered a melting point of 170 to 171 °C. Molecule `CCOC(=O)C1CN(CC)c2nc(OC)ncc2C1=O` (stereo not given) registered a melting point of 118 °C.

For the molecule `Cc1cc(C)c2cccc(OCc3c(Cl)ccc(S(=O)(=O)N4CCC[C@H]4C(=O)NCCCNC(=O)COc4ccc(C=NN)cc4)c3Cl)c2n1`, the melting point fell in the range of 124 to 128 °C. For `Cc1ccc(C=Cc2ccccc2C(=O)O)cc1` the value was 80 to 82 °C; for `Cc1cc(C)n(Cc2ccc3c(c2)Cc2c(-c4ccsc4)n[nH]c2-3)n1`, 257 to 260 °C. For `Cc1cc(OC/C=C(\c2ccc(C#CCN3CCOCC3)cc2)c2ccc(S(C)=O)cc2)ccc1OCC(=O)O` (stereo not given) the value was 137 to 142 °C; for `O=C(Nc1nncs1)C(=O)c1cn(Cc2ccc(F)cc2)c2ccccc12`, 218 to 220 °C.

`CCOC(=O)c1cnc2c(OC)csc2c1Nc1ccccc1C` registered a melting point of 141 to 143 °C. For `COC(=O)c1ccc(-c2ccc3nc(OC)ccc3c2)cc1` the value was 158 to 161 °C.

Molecule `CCCc1nc(N(C)c2ccccc2)n2ncc(C(O)c3ccccc3Cl)c2n1` (stereo not given) had a melting point of 153 to 155 °C. The same measure for `COC(=O)CCCc1cc2nc(Cl)ccc2n1S(=O)(=O)c1cccc(-c2ccnc(C)n2)c1`: 140 to 144 °C; for `O=S(=O)(c1ccc(Nc2ccnc3cc(C(F)(F)F)ccc23)cc1)N1CCN(c2ccccn2)CC1`: 202 to 203 °C. Molecule `CC(=O)NC1CCCc2sc(C(C)=O)cc21` (stereo not given) had a melting point of 168 to 172 °C.

The molecule `FC(F)(F)c1ccc(-c2ncc(-c3cccs3)s2)cc1` yielded a melting point of 154 to 155 °C. For `O=C(O)Cc1c(C(=O)c2cccc(Br)c2)[nH]c2cc(Cl)ccc12` the value was 215 to 218 °C; for `O=C1Cc2ccccc2C(c2cccc(Cl)c2)N1` (stereo not given), 133 to 134 °C.

With `CCc1ccc2nc(C)c(S(=O)(=O)NC(=O)Nc3nc(OC)cc(OC)n3)n2n1`, the melting point was in the range of 172 to 174 °C. For `O=C(O)C(=O)N1CCC(Oc2ccc(Cl)cc2)CC1` the value was 144 to 145 °C; for `COc1cc(C=O)cc2c1OCCC2`, 81 °C; for `O=C(O)C(CCc1ccc(Cl)cc1)(Cn1cncn1)c1ccccc1` (stereo not given), 188 to 190 °C. The same measure for `CCCNC(=O)C1CCCN1C(=O)OCc1ccccc1` (stereo not given): 74 to 75 °C; for `Cc1cc(C)c2nsnc2c1N`: 113 to 114 °C. The same measure for `COC(=O)C(C)Oc1ccc(Oc2ccc(Br)cc2F)cc1` (stereo not given): 62 to 64 °C. Regarding `COc1cncc(-c2cc(=S)ss2)n1`, the melting point is 149 °C.

`Cn1cc(-c2cc3cccnc3[nH]2)c2cc(C(=O)NC(CO)CO)ccc21` came in with a melting point of 178 to 179 °C. The same measure for `CCCCCc1ccc(-c2ccc(-c3nc(N)nc(N)n3)cc2)cc1`: 242 to 244 °C. For `CSc1nccc(C)c1NC(=O)CCCCCCCCSc1nc2ccccc2s1` the value was 88 to 90 °C; for `O=C1C=CC(c2ccccc2)(c2ccccc2)[C@@H]2CN(Cc3ccccc3)C[C@H]12` (racemic), 132 °C. The same measure for `COc1ccc(N2CCN(CC(O)COc3ccc(OCc4ccccc4)cc3)CC2)c(OC)c1` (stereo not given): 110 to 112 °C; for `CS(=O)(=O)c1ccc(-c2oc(C(c3ccccc3)c3ccccc3)nc2-c2ccc(F)cc2)cc1`: 155 to 156 °C; for `N#CCN1CCC(Nc2nc3ccccc3n2Cc2ccnc3ccccc23)CC1`: 190 °C.

As to `CC(C(N)=S)C(O)(Cn1cncn1)c1ccc(F)cc1F` (stereo not given), the melting point is 164 to 167 °C. For `FC(F)(F)c1ccc2c(C3=CCN(CCCOc4cccc5[nH]ccc45)CC3)c[nH]c2c1` the value was 190 to 195 °C; for `O=C(Nc1ccc(F)cc1)NC1CCN(S(=O)(=O)c2ccc(Cl)cc2)CC1`, 160 to 162 °C; for `O=C1CC(c2ccccc2)CC(=O)N1c1ccncc1`, 229 to 230 °C. The same measure for `CN=C(N)Nc1nc(-c2cccc(C(=O)NC)c2)cs1`: 111 to 113 °C. For `CN(C(=O)OC(C)(C)C)c1cc(Sc2ccc(O)cc2)ccc1N` the value was 62 to 67 °C; for `Cc1c(Cc2ccccc2)c(=O)[nH]c2cc(O)cc(O)c12`, 307 to 312 °C; for `FC(F)(F)c1ccc(COc2ccnc(CSc3nc4cscc4[nH]3)c2)cc1`, 141 to 143 °C.

Consider `CS(=O)c1ccc(-c2nc(=O)c3ccccc3s2)cn1` (stereo not given), for which the melting point fell in the range of 195 to 196 °C.

Consider `CCCCCCCCCCOc1ccccc1C(=N)OCC`, for which the melting point lay within 93 to 96 °C. For `OC(c1ccccc1)(c1ncc[nH]1)c1ccccc1Cl` (stereo not given) the value was 186 to 188 °C; for `CCn1nc(C(F)(F)F)c(C(=O)O)c1Cl`, 164 to 166 °C; for `O=C(C1CN(S(=O)(=O)c2ccc3cc(Br)ccc3c2)CCN1C(=O)C1CCN(c2ccncc2)CC1)N1CCSCC1` (stereo not given), 250 to 258 °C. For `COC(=O)C(CO)NC(=O)C(Cc1c[nH]c2ccccc12)NC(=O)OCc1ccccc1` (stereo not drawn) (Cbz-Trp-Ser-OMe; configuration not given here) the value was 133 to 135 °C; for `CC(C)Sc1cc([Si](C)(C)C)oc1C(=O)O`, 181 to 183 °C.

For orientation: melting point means the temperature of the solid-liquid transition.
